Measurements taken from patent publication US8680012B2, “4-phenyl-pyrane-3,5-diones,4-phenyl-thiopyrane-3,6-diones and cyclohexanetriones as novel herbicides” (Syngenta Crop Protection LLC, priority 2006, dated 2014).

Test system: Avena fatua (AVEFA)
Assay: Example A pre-emergence herbicidal activity, glasshouse pot test
Type: in vivo
Conditions: 480 h, rate 500 g/ha, evaluated 20 days after spraying, read-out: Pre-emergence activity AVEFA (100=total damage to plant; 0=no damage to plant)
Protocol: (§1) Seeds of a variety of test species were sown in standard soil in pots. After cultivation for one day (pre-emergence) or after 10 days cultivation (post-emergence) under controlled conditions in a glasshouse, the plants were sprayed with an aqueous spray solution derived from the formulation of the technical active ingredient in 0.6 ml acetone and 45 ml formulation solution containing 10.6% Emulsogen EL (Registry number 61791-12-6), 42.2% N-methylpyrrolidone, 42.2% dipropylene glycol monomethyl ether (Registry number 34590-94-8) and 0.2% X-77 (Registry number 11097-66-8). The test plants were then grown in a greenhouse under optimum conditions until, 15 days later for post-emergence and 20 days for pre-emergence, the test was evaluated (100=total damage to plant; 0=no damage to plant).
(§2) Alopecurus myosuroides (ALOMY), Avena fatua (AVEFA), Lolium perenne (LOLPE), Setaria faberi (SETFA), Digitaria sanguinalis (DIGSA), Echinochloa crus-galli (ECHCG)

Point of comparison: `CCc1ccc(-c2ccc(Cl)cc2)cc1C1=C(O)COCC1=O` [Compound A-2], pest or weed control at 500 g/ha 50%. Against it:
- Cc1ccc(-c2ccc(Cl)cc2)cc1C1=C(O)COCC1=O [Compound A-3] — lower, 20%
- Cc1ccc(-c2ccc(Cl)cc2)cc1C1=C(O)C(C)(C)OC(C)(C)C1=O [Compound A-5] — the same, 50%
- Cc1ccc(-c2ccc(F)cc2)cc1C1=C(O)C(C)(C)OC(C)(C)C1=O [Compound A-9] — lower, 30%

Test system: Setaria faberi (SETFA)
Assay: as above
Type: in vivo
Conditions: 480 h, rate 500 g/ha, evaluated 20 days after spraying, read-out: Pre-emergence activity SETFA (100=total damage to plant; 0=no damage to plant)
Protocol: as §1, §2

Point of comparison: `Cc1ccc(-c2ccc(F)cc2)cc1C1=C(O)C(C)(C)OC(C)(C)C1=O` [Compound A-9], pest or weed control at 500 g/ha 60%. Against it:
- CCc1ccc(-c2ccc(Cl)cc2)cc1C1=C(O)COCC1=O [Compound A-2] — higher, 70%
- Cc1ccc(-c2ccc(Cl)cc2)cc1C1=C(O)COCC1=O [Compound A-3] — lower, 50%
- Cc1ccc(-c2ccc(Cl)cc2)cc1C1=C(O)C(C)(C)OC(C)(C)C1=O [Compound A-5] — higher, 100%

Test system: Lolium perenne (LOLPE)
Assay: as above
Type: in vivo
Conditions: 480 h, rate 500 g/ha, evaluated 20 days after spraying, read-out: Pre-emergence activity LOLPE (100=total damage to plant; 0=no damage to plant)
Protocol: as §1, §2

Point of comparison: `Cc1ccc(-c2ccc(Cl)cc2)cc1C1=C(O)COCC1=O` [Compound A-3], pest or weed control at 500 g/ha 20%. Against it:
- CCc1ccc(-c2ccc(Cl)cc2)cc1C1=C(O)COCC1=O [Compound A-2] — higher, 60%
- Cc1ccc(-c2ccc(Cl)cc2)cc1C1=C(O)C(C)(C)OC(C)(C)C1=O [Compound A-5] — higher, 50%
- Cc1ccc(-c2ccc(F)cc2)cc1C1=C(O)C(C)(C)OC(C)(C)C1=O [Compound A-9] — the same, 20%

Test system: Digitaria sanguinalis (DIGSA)
Assay: as above
Type: in vivo
Conditions: 480 h, rate 500 g/ha, evaluated 20 days after spraying, read-out: Pre-emergence activity DIGSA (100=total damage to plant; 0=no damage to plant)
Protocol: as §1, §2

Point of comparison: `Cc1ccc(-c2ccc(Cl)cc2)cc1C1=C(O)C(C)(C)OC(C)(C)C1=O` [Compound A-5], pest or weed control at 500 g/ha 100%. Against it:
- CCc1ccc(-c2ccc(Cl)cc2)cc1C1=C(O)COCC1=O [Compound A-2] — lower, 10%
- Cc1ccc(-c2ccc(Cl)cc2)cc1C1=C(O)COCC1=O [Compound A-3] — lower, 70%
- Cc1ccc(-c2ccc(F)cc2)cc1C1=C(O)C(C)(C)OC(C)(C)C1=O [Compound A-9] — lower, 50%

Test system: Alopecurus myosuroides (ALOMY)
Assay: as above
Type: in vivo
Conditions: 480 h, rate 500 g/ha, evaluated 20 days after spraying, read-out: Pre-emergence activity ALOMY (100=total damage to plant; 0=no damage to plant)
Protocol: as §1, §2

Point of comparison: `Cc1ccc(-c2ccc(F)cc2)cc1C1=C(O)C(C)(C)OC(C)(C)C1=O` [Compound A-9], pest or weed control at 500 g/ha 20%. Against it:
- CCc1ccc(-c2ccc(Cl)cc2)cc1C1=C(O)COCC1=O [Compound A-2] — higher, 50%
- Cc1ccc(-c2ccc(Cl)cc2)cc1C1=C(O)COCC1=O [Compound A-3] — higher, 30%
- Cc1ccc(-c2ccc(Cl)cc2)cc1C1=C(O)C(C)(C)OC(C)(C)C1=O [Compound A-5] — higher, 60%

Test system: Echinochloa crus-galli (ECHCG)
Assay: as above
Type: in vivo
Conditions: 480 h, rate 500 g/ha, evaluated 20 days after spraying, read-out: Pre-emergence activity ECHCG (100=total damage to plant; 0=no damage to plant)
Protocol: as §1, §2

Point of comparison: `Cc1ccc(-c2ccc(Cl)cc2)cc1C1=C(O)C(C)(C)OC(C)(C)C1=O` [Compound A-5], pest or weed control at 500 g/ha 100%. Against it:
- CCc1ccc(-c2ccc(Cl)cc2)cc1C1=C(O)COCC1=O [Compound A-2] — the same, 100%
- Cc1ccc(-c2ccc(Cl)cc2)cc1C1=C(O)COCC1=O [Compound A-3] — lower, 70%
- Cc1ccc(-c2ccc(F)cc2)cc1C1=C(O)C(C)(C)OC(C)(C)C1=O [Compound A-9] — lower, 50%

Test system: Avena fatua (AVEFA)
Assay: Example A post-emergence herbicidal activity, glasshouse pot test
Type: in vivo
Conditions: 360 h, rate 125 g/ha, evaluated 15 days after spraying, read-out: Post-emergence activity AVEFA (100=total damage to plant; 0=no damage to plant)
Protocol: as §1, §2

Point of comparison: `Cc1ccc(-c2ccc(Cl)cc2)cc1C1=C(O)COCC1=O` [Compound A-3], pest or weed control at 125 g/ha 0%. Against it:
- CCc1ccc(-c2ccc(Cl)cc2)cc1C1=C(O)COCC1=O [Compound A-2] — higher, 20%
- Cc1ccc(-c2ccc(Cl)cc2)cc1C1=C(O)C(C)(C)OC(C)(C)C1=O [Compound A-5] — higher, 70%
- Cc1ccc(-c2ccc(F)cc2)cc1C1=C(O)C(C)(C)OC(C)(C)C1=O [Compound A-9] — the same, 0%

Test system: Setaria faberi (SETFA)
Assay: as above
Type: in vivo
Conditions: 360 h, rate 125 g/ha, evaluated 15 days after spraying, read-out: Post-emergence activity SETFA (100=total damage to plant; 0=no damage to plant)
Protocol: as §1, §2

Point of comparison: `Cc1ccc(-c2ccc(F)cc2)cc1C1=C(O)C(C)(C)OC(C)(C)C1=O` [Compound A-9], pest or weed control at 125 g/ha 80%. Against it:
- CCc1ccc(-c2ccc(Cl)cc2)cc1C1=C(O)COCC1=O [Compound A-2] — the same, 80%
- Cc1ccc(-c2ccc(Cl)cc2)cc1C1=C(O)COCC1=O [Compound A-3] — lower, 60%
- Cc1ccc(-c2ccc(Cl)cc2)cc1C1=C(O)C(C)(C)OC(C)(C)C1=O [Compound A-5] — the same, 80%

Test system: Lolium perenne (LOLPE)
Assay: as above
Type: in vivo
Conditions: 360 h, rate 125 g/ha, evaluated 15 days after spraying, read-out: Post-emergence activity LOLPE (100=total damage to plant; 0=no damage to plant)
Protocol: as §1, §2

Point of comparison: `Cc1ccc(-c2ccc(F)cc2)cc1C1=C(O)C(C)(C)OC(C)(C)C1=O` [Compound A-9], pest or weed control at 125 g/ha 30%. Against it:
- CCc1ccc(-c2ccc(Cl)cc2)cc1C1=C(O)COCC1=O [Compound A-2] — lower, 0%
- Cc1ccc(-c2ccc(Cl)cc2)cc1C1=C(O)COCC1=O [Compound A-3] — lower, 0%
- Cc1ccc(-c2ccc(Cl)cc2)cc1C1=C(O)C(C)(C)OC(C)(C)C1=O [Compound A-5] — higher, 70%

Test system: Digitaria sanguinalis (DIGSA)
Assay: as above
Type: in vivo
Conditions: 360 h, rate 125 g/ha, evaluated 15 days after spraying, read-out: Post-emergence activity DIGSA (100=total damage to plant; 0=no damage to plant)
Protocol: as §1, §2

Point of comparison: `CCc1ccc(-c2ccc(Cl)cc2)cc1C1=C(O)COCC1=O` [Compound A-2], pest or weed control at 125 g/ha 50%. Against it:
- Cc1ccc(-c2ccc(Cl)cc2)cc1C1=C(O)COCC1=O [Compound A-3] — lower, 40%
- Cc1ccc(-c2ccc(Cl)cc2)cc1C1=C(O)C(C)(C)OC(C)(C)C1=O [Compound A-5] — higher, 100%
- Cc1ccc(-c2ccc(F)cc2)cc1C1=C(O)C(C)(C)OC(C)(C)C1=O [Compound A-9] — higher, 80%

Test system: Alopecurus myosuroides (ALOMY)
Assay: as above
Type: in vivo
Conditions: 360 h, rate 125 g/ha, evaluated 15 days after spraying, read-out: Post-emergence activity ALOMY (100=total damage to plant; 0=no damage to plant)
Protocol: as §1, §2

Point of comparison: `Cc1ccc(-c2ccc(Cl)cc2)cc1C1=C(O)COCC1=O` [Compound A-3], pest or weed control at 125 g/ha 0%. Against it:
- CCc1ccc(-c2ccc(Cl)cc2)cc1C1=C(O)COCC1=O [Compound A-2] — higher, 20%
- Cc1ccc(-c2ccc(Cl)cc2)cc1C1=C(O)C(C)(C)OC(C)(C)C1=O [Compound A-5] — higher, 70%
- Cc1ccc(-c2ccc(F)cc2)cc1C1=C(O)C(C)(C)OC(C)(C)C1=O [Compound A-9] — higher, 50%

Test system: Echinochloa crus-galli (ECHCG)
Assay: as above
Type: in vivo
Conditions: 360 h, rate 125 g/ha, evaluated 15 days after spraying, read-out: Post-emergence activity ECHCG (100=total damage to plant; 0=no damage to plant)
Protocol: as §1, §2

Point of comparison: `Cc1ccc(-c2ccc(F)cc2)cc1C1=C(O)C(C)(C)OC(C)(C)C1=O` [Compound A-9], pest or weed control at 125 g/ha 80%. Against it:
- CCc1ccc(-c2ccc(Cl)cc2)cc1C1=C(O)COCC1=O [Compound A-2] — the same, 80%
- Cc1ccc(-c2ccc(Cl)cc2)cc1C1=C(O)COCC1=O [Compound A-3] — lower, 70%
- Cc1ccc(-c2ccc(Cl)cc2)cc1C1=C(O)C(C)(C)OC(C)(C)C1=O [Compound A-5] — higher, 100%
